Columns and labels:
MCF-7 cells [1] = experiment: Clonogenic assay after X-ray irradiation; format: cell-based, human; settings: for proliferative capacity (clonogenic survival): MCF-7, 10 μM, compared to DMSO control
Procedure: One hour after treatment with inhibitors, cells were exposed to X-ray using a MLG 300/6-D apparatus (Gilardoni, Lecco, Italy) set to […] and 6 mA, in order to produce an equivalent absorbed dose of 1cGy/s. Afterwards, cells were harvested, counted and then diluted in inhibitor containing growth medium. Appropriate cell numbers were seeded in quadruplicate according to the doubling time of the cell line and to radiation dose. 24 h after this seeding, the medium with inhibitor was replaced with fresh DMEM and cells were then incubated for 14 days (enough time to allow at least six cell divisions). After this period of growth, cells were washed twice with PBS and then fixed and stained with a suitable volume of a solution made of 0.3% Methylene Blue and 80% Ethanol for 30 min at room temperature. After washing cells twice with ddH2O, plates were pictured with ChemiDoc XRS+ Imaging System (Bio-Rad) in colorimetric mode. Colonies were detected using Fiji software, with the “Find maxima” function setting a background noise threshold of 3000. Radiation-dose response curveS to X-ray for DMSO and inhibitor samples were calculated using surviving fraction. Plating efficiency and surviving fraction were calculated as follows:Plating efficiency = number of colonies counted/number of cells plated Surviving fraction = Plating efficiency/plating efficiency of shame sample

MCF-7 cells [2] = experiment: Flow-cytometry analysis of cell cycle distribution; format: cell-based, human; settings: for cells in G2/M / subG1 cells (possible apoptotic fraction): MCF-7, 30 μM
Procedure: Flow-cytometry analysis of DNA content was carried out using an EPICS xl flow-cytometer (Beckman-Coulter, Brea, CA, USA). DMSO and inhibitor treated MCF-7 cells were trypsinized, pelleted, washed with PBS and finally resuspended in PBS containing 0.1% Triton-X-100 (#A1388.1000, AppliChem, Darmstadt, Germany) and 40 μg/mL propidium iodide (#P-4170, Sigma). After 20 min incubation at 37 °C the samples were analyzed. 10,000 events were acquired for each sample. Acquired data were analyzed using the WinMDI software by Joe Trotter, available at http://facs.scripps.edu.

[3] = tested on: H3K4me3 levels in MCF-7 cells; experiment: Western blotting of H3K4me3 levels in bulk chromatin; format: cell-based, human; settings: MCF-7 bulk chromatin, 1 μM, 10 μM and 30 μM, 24 h, vs DMSO
Procedure: Histone isolation was performed according to acid extraction of histones protocol of Shechter and colleagues. Histone concentration was determined by running 5 μL of samples and known concentrations of commercially available purified calf thymus histones (from Sigma Aldrich Cat. #000000010223565001) on a SDS-PAGE gel. The gel is stained with Coomassie blue G 250 (BIO-RAD Cat. #161-0786) for 1 hour at room temperature and then destained in distilled water. The gel image is acquired with ChemiDoc XRS+ Imaging System (Bio-Rad, Hercules, CA, USA) and the volumes of bands of the samples are compared to standard concentrations of calf thymus histone.
Proteins were resolved on a 12% (histones) or 5% (JARID1B) denaturing polyacrylamide gel, using either 4 μg of histone preparation or 40 μg of cell lysate. After electrophoresis, proteins were transferred on a nitrocellulose membrane (Protran™ […] NC, # 10600002, GE Healthcare (Amersham™), Chicago, IL, USA) via wet transfer method using a Bio-Rad tank. Transfer efficiency was verified via ponceau staining (#P7767, Sigma-Aldrich). Filters were blocked with either milk (#70166, Sigma-Aldrich) or bovine serum albumin (#A3069, Sigma-Aldrich) and then hybridized over night at 4 °C in gentle rotation with the following antibodies: rabbit anti-H3K4me3 (1:1000, #39915, Active Motif, RRID:AB_2687512); rabbit-anti-H3K27me3 (1:1000, #9733, Cell Signaling Technology, RRID:AB_2616029); rabbit-anti- H3K9pan-methylated (1:1000, #4473, RRID:AB_10544693); rabbit-anti-H3 ([…], Cat#1791, ABCAM, RRID:AB_302613); rabbit anti-H2AX (1:1000, Cat#7631, Cell Signaling Technology, RRID:AB_10860771), rabbit anti-Phospho-H2AX (1:1000, Cat#9718, Cell Signaling Technology, RRID:AB_2118009), rabbit anti-JARID1B (1:50, Cell Signaling Technology, Cat#3273 RRID: AB_1264191). Goat-anti-Rabbit Horseradish Peroxidase conjugated (1:10,000, #31460, Thermo Fisher Scientific, Waltham, MA, USA RRID:AB_228341) was used as secondary antibody for 1 hour hybridization at room temperature. Blots were scanned and analyzed with a ChemiDoc XRS+ Imaging System (Bio-Rad). The volumes of each band of protein was acquired using Bio-Rad’s ImageLab software by means of volume tools using global quantification. The signal for each protein was normalized to the housekeeping protein and ratios with average control values were determined. For histones as loading control was used either total histone H3 detected by a specific antibody or histone H1 levels by staining the upper part of the gel properly cut before protein transfer on nitrocellulose membrane.

KDM5D = KDM5D (Homo sapiens, UniProt Q9BY66); experiment: Surface Plasmon Resonance (SPR), immobilized KDM5D; format: binding; settings: KDM5D immobilized on COOH5 sensorchip, buffer HSP-1%D, analyte 6.25-100 μM
KDM5D, sequence (Q9BY66 whole entry): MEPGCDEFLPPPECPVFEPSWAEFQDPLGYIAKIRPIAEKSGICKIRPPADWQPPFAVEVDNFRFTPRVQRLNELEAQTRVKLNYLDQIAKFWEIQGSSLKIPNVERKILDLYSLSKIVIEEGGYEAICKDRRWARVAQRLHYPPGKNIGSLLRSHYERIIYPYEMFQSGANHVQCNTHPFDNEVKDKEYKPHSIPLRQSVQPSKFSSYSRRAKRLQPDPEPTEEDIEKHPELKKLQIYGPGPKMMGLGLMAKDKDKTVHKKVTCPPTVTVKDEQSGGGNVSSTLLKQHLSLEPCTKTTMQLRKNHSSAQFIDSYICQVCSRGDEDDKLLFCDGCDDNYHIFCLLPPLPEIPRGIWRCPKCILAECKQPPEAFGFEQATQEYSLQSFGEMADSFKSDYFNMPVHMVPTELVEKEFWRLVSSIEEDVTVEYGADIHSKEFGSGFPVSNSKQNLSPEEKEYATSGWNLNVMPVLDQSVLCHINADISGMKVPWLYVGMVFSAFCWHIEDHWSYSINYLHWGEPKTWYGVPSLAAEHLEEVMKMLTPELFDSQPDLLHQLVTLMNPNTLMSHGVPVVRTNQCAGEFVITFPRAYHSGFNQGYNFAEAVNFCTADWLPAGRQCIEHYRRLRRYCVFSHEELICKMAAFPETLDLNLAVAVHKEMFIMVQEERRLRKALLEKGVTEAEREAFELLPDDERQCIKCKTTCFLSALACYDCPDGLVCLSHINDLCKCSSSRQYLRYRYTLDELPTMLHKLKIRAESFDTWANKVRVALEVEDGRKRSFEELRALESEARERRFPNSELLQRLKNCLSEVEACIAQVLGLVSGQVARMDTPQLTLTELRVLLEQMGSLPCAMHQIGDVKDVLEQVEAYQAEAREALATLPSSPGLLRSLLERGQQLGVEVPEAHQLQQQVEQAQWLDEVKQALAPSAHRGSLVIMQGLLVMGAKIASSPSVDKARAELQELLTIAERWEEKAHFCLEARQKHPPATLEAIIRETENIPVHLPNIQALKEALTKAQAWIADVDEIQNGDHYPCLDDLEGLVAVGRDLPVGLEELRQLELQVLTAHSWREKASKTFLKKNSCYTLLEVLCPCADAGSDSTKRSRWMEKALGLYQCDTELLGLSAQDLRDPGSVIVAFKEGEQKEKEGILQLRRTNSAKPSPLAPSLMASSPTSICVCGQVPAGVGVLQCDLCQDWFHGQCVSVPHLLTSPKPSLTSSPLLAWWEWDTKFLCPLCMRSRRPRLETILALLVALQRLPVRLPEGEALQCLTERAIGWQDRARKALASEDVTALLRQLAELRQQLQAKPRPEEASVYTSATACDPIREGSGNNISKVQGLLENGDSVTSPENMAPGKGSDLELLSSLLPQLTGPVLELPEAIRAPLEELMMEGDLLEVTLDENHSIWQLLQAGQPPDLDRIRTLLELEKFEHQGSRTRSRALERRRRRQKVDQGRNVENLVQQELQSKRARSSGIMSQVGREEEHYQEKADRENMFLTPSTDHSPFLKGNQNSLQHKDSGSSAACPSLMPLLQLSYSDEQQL
Procedure: Surface Plasmon Resonance (SPR) experiments were carried out using a SensiQ Pioneer system (ICx Nomadics, Stillwater, OK, USA). Immobilization of ligand (KDM5D) was carried out essentially as in Ilari et al.. The sensor chip (COOH5) was activated chemically by a 100 µL injection of a 1:1 mixture of N-ethyl-N′-(3-([…])carbodiimide (200 mM) and N-hydroxysuccinimide (50 mM) at a flow rate of 5 µL/min. KDM5D was immobilized on activated sensor chips via amine coupling. The immobilization was carried out in 20 mM sodium acetate at pH 4.5; the remaining unreacted groups were blocked by injecting 1 M ethanolamine hydrochloride (100 µL). The amount of immobilized KDM5D was detected by mass concentration-dependent changes in the refractive index on the sensor chip surface and corresponded to about 11,000 resonance units (RU); an empty flow cell was used as a reference. Analytes, i.e., inhibitors RS3152, RS3183, RS3195, RS4995 and RS5033 were dissolved in DMSO at a concentration of 10 mM and diluted in HSP buffer (10 mM Hepes pH 7.4, 150 mM NaCl + 0.005% surfactant P20) to yield 100 μM inhibitor concentration in HSP + 1% DMSO (HSP-1%D). The analytes were automatically diluted in HSP-1%D and injected on the sensorchip for 120 s at a constant flow (30 µL/min); analyte concentrations were: (1) 6.25 μM; (2) 12.5 μM; (3) 25 μM; (4) 50 μM; (5) 100 μM. The increase in RU relative to baseline indicates complex formation; the plateau region represents the steady-state phase of the interaction, whereas the decrease in RU after 120 s represents dissociation of analytes from immobilized KDM5 after injection of buffer HSP-1%D. The sensorgrams were analysed using the SensiQ Qdat 4.0 program and using simple Scatchard plots.

| Structure (SMILES) | proliferative capacity (clonogenic survival) (MCF-7 cells [1]; 3 Gy irradiation dose) | perturbation of cell cycle dynamics (MCF-7 cells [2]; MCF-7, 10 μM and 30 μM) | cells in G2/M (MCF-7 cells [2]) | subG1 cells (possible apoptotic fraction) (MCF-7 cells [2]) | H3K4me3 levels [3] | H3K4me3 levels ([3]; listed as RS 5033) | Kd (KDM5D) [µM] | proliferative capacity (clonogenic survival) (MCF-7 cells [1]; irradiated) | number of clones in sham-irradiated cells (MCF-7 cells [1]; MCF-7, sham-irradiated (not shown)) | cell cycle dynamics (MCF-7 cells [2]; MCF-7, 1 μM) | cell cycle dynamics (MCF-7 cells [2]; MCF-7, 10 μM) |
| --- | --- | --- | --- | --- | --- | --- | --- | --- | --- | --- | --- |
| CCOC(=O)c1ccccc1C(=O)c1cccc(NS(=O)(=O)c2ccc(OC)cc2)c1 [RS5033] | slight but significant decrease | no significant perturbation | not observed | not observed | more remarkable and significant increase of H3K4me3 | strong and significant increase | 32 ± 2 | – | – | – | – |
| CCOC(=O)c1cccn1C(=O)c1cccc(NS(=O)(=O)c2ccc(OC)cc2)c1 [RS3195] | – | – | clear increase of cells in G2/M | consistent increase of subG1 cells | slight increase | – | 38 ± 2 | no significant effect | lower number of clones | No cell cycle perturbation | slight but significant increase of G0/G1 population |
